Numbered stars: 1 amine (or outer) side, 2 acyl side, 3 side chain; on linkers, the order of the positions; unused ones are H or OH. Square brackets hold non-standard residues; d marks the D form. Side chains are listed from the residue outwards. Peptide text beside a SMILES is read from it. * marks the point of attachment. C20 diacid = O=C(O)CCCCCCCCCCCCCCCCCCC(=O)*; αMePhe(2-F) = C[C@](N)(Cc1ccccc1F)C(=O)O; γGlu = O=C(O)[C@H](CCC(=O)[*:2])N[*:1]; αMeF = C[C@](N)(Cc1ccccc1)C(=O)O; αMeL = CC(C)C[C@](C)(N)C(=O)O; AEEA = NCCOCCOCC(=O)O; Aib = CC(C)(N)C(=O)O
Experiments:
[1] = target: human GLP-1 receptor (GLP-1R) (Homo sapiens, UniProt P43220); assay: cAMP pharmacological functional assay in presence of casein, hGLP-1R; type: cell-based; details: HEK293 cells expressing hGLP-1R, 0.1% Casein, geometric mean; read-out: hGLP1R cAMP Rel EC50 nM (SEM, n)
Sequence of human GLP-1 receptor (GLP-1R) (P43220 24-463): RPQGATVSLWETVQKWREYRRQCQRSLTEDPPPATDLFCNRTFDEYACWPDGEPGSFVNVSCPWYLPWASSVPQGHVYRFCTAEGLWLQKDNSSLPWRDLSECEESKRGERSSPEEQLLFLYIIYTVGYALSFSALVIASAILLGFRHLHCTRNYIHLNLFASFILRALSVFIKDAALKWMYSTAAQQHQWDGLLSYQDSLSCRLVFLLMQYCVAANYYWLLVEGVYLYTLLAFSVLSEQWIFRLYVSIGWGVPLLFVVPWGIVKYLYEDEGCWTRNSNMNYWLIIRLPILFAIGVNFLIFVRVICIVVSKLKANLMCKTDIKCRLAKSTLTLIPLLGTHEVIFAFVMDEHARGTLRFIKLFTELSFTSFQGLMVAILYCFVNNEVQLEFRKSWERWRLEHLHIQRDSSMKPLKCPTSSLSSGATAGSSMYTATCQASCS

[2] = target: T1, gastric inhibitory peptide receptor (GIPR) (Homo sapiens, UniProt P48546); assay: cAMP pharmacological functional assay in presence of casein, hGIPR; type: cell-based; details: HEK293 cells expressing hGIPR, 0.1% Casein, geometric mean; read-out: hGIPR cAMP Rel EC50 nM (SEM, n)
T1 sequence (P48546 22-466): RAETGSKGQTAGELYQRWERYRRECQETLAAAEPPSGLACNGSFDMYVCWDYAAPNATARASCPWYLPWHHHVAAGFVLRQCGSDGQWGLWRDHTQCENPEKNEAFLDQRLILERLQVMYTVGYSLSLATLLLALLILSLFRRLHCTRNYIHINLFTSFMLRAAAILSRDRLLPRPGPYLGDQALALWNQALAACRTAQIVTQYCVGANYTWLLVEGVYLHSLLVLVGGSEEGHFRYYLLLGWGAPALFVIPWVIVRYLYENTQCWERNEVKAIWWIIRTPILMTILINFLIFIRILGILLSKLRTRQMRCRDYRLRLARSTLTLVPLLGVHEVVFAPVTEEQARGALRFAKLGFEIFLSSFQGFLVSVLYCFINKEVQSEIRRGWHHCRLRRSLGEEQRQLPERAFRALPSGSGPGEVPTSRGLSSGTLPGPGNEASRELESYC

Compound	EC50 [1] [nM]	EC50 [2] [nM]
CC[C@H](C)[C@H](NC(=O)[C@H](CC(C)C)NC(=O)[C@H](Cc1c[nH]cn1)NC(=O)[C@@H](CCC(=O)O)NC(=O)[C@@H](NC(=O)[C@H](Cc1ccccc1)NC(=O)[C@@H](NC(=O)C(C)(C)NC(=O)[C@H](CCC(N)=O)NC(=O)[C@H](C)NC(=O)[C@H](CCCCNC(=O)COCCOCCNC(=O)COCCOCCNC(=O)CC[C@H](NC(=O)CC[C@H](NC(=O)CCCCCCCCCCCCCCCCCCC(=O)O)C(=O)O)C(=O)O)NC(=O)[C@H](CCC(=O)O)NC(=O)[C@H](CC(=O)O)NC(=O)[C@H](CC(C)C)NC(=O)[C@](C)(CC(C)C)NC(=O)[C@@H](NC(=O)[C@H](CO)NC(=O)[C@H](Cc1c[nH]cn1)NC(=O)[C@H](CC(=O)O)NC(=O)[C@H](CO)NC(=O)[C@@H](NC(=O)[C@](C)(Cc1ccccc1F)NC(=O)[C@@H](NC(=O)CNC(=O)[C@H](CCC(=O)O)NC(=O)C(C)(C)NC(=O)[C@@H](N)Cc1ccc(O)cc1)[C@@H](C)O)[C@@H](C)O)[C@@H](C)CC)[C@@H](C)O)[C@@H](C)CC)C(=O)N[C@@H](CCC(=O)O)C(=O)NCC(=O)NCC(=O)N1CCC[C@H]1C(=O)N[C@@H](CO)C(=O)N[C@@H](CO)C(=O)NCC(N)=O [Example 162] (H-Y[Aib]EGT[αMePhe(2-F)]TSDHSI[αMeL]LDEK([AEEA-AEEA-γGlu-γGlu-C20 diacid])AQ[Aib]TFI[dE]HLIEGGPSSG-NH2; N-terminus assumed)	36	4.56
CC[C@H](C)[C@H](NC(=O)[C@H](CC(C)C)NC(=O)[C@H](Cc1ccc(O)cc1)NC(=O)[C@@H](CCC(=O)O)NC(=O)[C@@H](NC(=O)[C@H](Cc1ccccc1)NC(=O)[C@@H](NC(=O)C(C)(C)NC(=O)[C@H](CCC(N)=O)NC(=O)[C@H](C)NC(=O)[C@H](CCCCNC(=O)COCCOCCNC(=O)COCCOCCNC(=O)CC[C@H](NC(=O)CCCCCCCCCCCCCCCCCCC(=O)O)C(=O)O)NC(=O)[C@H](CCC(=O)O)NC(=O)[C@H](CC(=O)O)NC(=O)[C@H](CC(C)C)NC(=O)[C@](C)(CC(C)C)NC(=O)[C@@H](NC(=O)[C@H](CO)NC(=O)[C@H](Cc1c[nH]cn1)NC(=O)[C@H](CC(=O)O)NC(=O)[C@H](CO)NC(=O)[C@@H](NC(=O)[C@](C)(Cc1ccccc1F)NC(=O)[C@@H](NC(=O)CNC(=O)[C@H](CCC(=O)O)NC(=O)C(C)(C)NC(=O)[C@@H](N)Cc1ccc(O)cc1)[C@@H](C)O)[C@@H](C)O)[C@@H](C)CC)[C@@H](C)O)[C@@H](C)CC)C(=O)N[C@H](CCC(=O)O)C(=O)NCC(=O)NCC(=O)N1CCC[C@H]1C(=O)N[C@@H](CO)C(=O)N[C@@H](CO)C(=O)NCC(=O)N[C@@H](C)C(=O)N1CCC[C@H]1C(=O)N1CCC[C@H]1C(=O)N1CCC[C@H]1C(=O)N[C@@H](CO)C(N)=O [Example 164] (H-Y[Aib]EGT[αMePhe(2-F)]TSDHSI[αMeL]LDEK([AEEA-AEEA-γGlu-C20 diacid])AQ[Aib]TFI[dE]YLI[dE]GGPSSGAPPPS-NH2)	15.6	3.09
CC[C@H](C)[C@H](NC(=O)[C@H](CC(C)C)NC(=O)[C@](C)(Cc1ccccc1)NC(=O)[C@@H](CCC(=O)O)NC(=O)[C@@H](NC(=O)[C@H](Cc1ccccc1)NC(=O)[C@@H](NC(=O)C(C)(C)NC(=O)[C@H](CCC(N)=O)NC(=O)[C@H](C)NC(=O)[C@H](CCCCNC(=O)COCCOCCNC(=O)COCCOCCNC(=O)CC[C@H](NC(=O)CCCCCCCCCCCCCCCCCCC(=O)O)C(=O)O)NC(=O)[C@H](CCC(=O)O)NC(=O)[C@H](CC(=O)O)NC(=O)[C@H](CC(C)C)NC(=O)[C@](C)(CC(C)C)NC(=O)[C@@H](NC(=O)[C@H](CO)NC(=O)[C@H](Cc1c[nH]cn1)NC(=O)[C@H](CC(=O)O)NC(=O)[C@H](CO)NC(=O)[C@@H](NC(=O)[C@](C)(Cc1ccccc1F)NC(=O)[C@@H](NC(=O)CNC(=O)[C@H](CCC(=O)O)NC(=O)C(C)(C)NC(=O)[C@@H](N)Cc1ccc(O)cc1)[C@@H](C)O)[C@@H](C)O)[C@@H](C)CC)[C@@H](C)O)[C@@H](C)CC)C(=O)N[C@H](CCC(=O)O)C(=O)NCC(=O)NCC(=O)N1CCC[C@H]1C(=O)N[C@@H](CO)C(=O)N[C@@H](CO)C(=O)NCC(=O)N[C@@H](C)C(=O)N1CCC[C@H]1C(=O)N1CCC[C@H]1C(=O)N1CCC[C@H]1C(=O)N[C@@H](CO)C(N)=O [Example 165] (H-Y[Aib]EGT[αMePhe(2-F)]TSDHSI[αMeL]LDEK([AEEA-AEEA-γGlu-C20 diacid])AQ[Aib]TFI[dE][αMeF]LI[dE]GGPSSGAPPPS-NH2)	5.81	1.04
CC[C@H](C)[C@H](NC(=O)[C@H](CC(C)C)NC(=O)[C@H](Cc1ccc(O)cc1)NC(=O)[C@@H](CCC(=O)O)NC(=O)[C@@H](NC(=O)[C@H](Cc1ccccc1)NC(=O)[C@@H](NC(=O)C(C)(C)NC(=O)[C@H](CCC(N)=O)NC(=O)[C@H](C)NC(=O)[C@H](CCCCNC(=O)COCCOCCNC(=O)COCCOCCNC(=O)CC[C@H](NC(=O)CCCCCCCCCCCCCCCCCCC(=O)O)C(=O)O)NC(=O)[C@H](CCC(=O)O)NC(=O)[C@H](CC(=O)O)NC(=O)[C@H](CC(C)C)NC(=O)[C@](C)(CC(C)C)NC(=O)[C@@H](NC(=O)[C@H](CO)NC(=O)[C@H](Cc1c[nH]cn1)NC(=O)[C@H](CC(=O)O)NC(=O)[C@H](CO)NC(=O)[C@@H](NC(=O)[C@](C)(Cc1ccccc1F)NC(=O)[C@@H](NC(=O)CNC(=O)[C@H](CCC(=O)O)NC(=O)C(C)(C)NC(=O)[C@@H](N)Cc1ccc(O)cc1)[C@@H](C)O)[C@@H](C)O)[C@@H](C)CC)[C@@H](C)O)[C@@H](C)CC)C(=O)N[C@@H](CCC(=O)O)C(=O)NCC(=O)NCC(N)=O [Example 166] (H-Y[Aib]EGT[αMePhe(2-F)]TSDHSI[αMeL]LDEK([AEEA-AEEA-γGlu-C20 diacid])AQ[Aib]TFI[dE]YLIEGG-NH2; N-terminus assumed)	4.08	0.355
CC[C@H](C)[C@H](NC(=O)[C@H](CC(C)C)NC(=O)[C@H](Cc1ccc(O)cc1)NC(=O)[C@@H](CCC(=O)O)NC(=O)[C@@H](NC(=O)[C@H](Cc1ccccc1)NC(=O)[C@@H](NC(=O)C(C)(C)NC(=O)[C@H](CCC(N)=O)NC(=O)[C@H](C)NC(=O)[C@H](CCCCNC(=O)COCCOCCNC(=O)COCCOCCNC(=O)CC[C@H](NC(=O)CCCCCCCCCCCCCCCCCCC(=O)O)C(=O)O)NC(=O)[C@H](CCC(=O)O)NC(=O)[C@H](CC(=O)O)NC(=O)[C@H](CC(C)C)NC(=O)[C@](C)(CC(C)C)NC(=O)[C@@H](NC(=O)[C@H](CO)NC(=O)[C@H](Cc1c[nH]cn1)NC(=O)[C@H](CC(=O)O)NC(=O)[C@H](CO)NC(=O)[C@@H](NC(=O)[C@](C)(Cc1ccccc1F)NC(=O)[C@@H](NC(=O)CNC(=O)[C@H](CCC(=O)O)NC(=O)C(C)(C)NC(=O)[C@@H](N)Cc1ccc(O)cc1)[C@@H](C)O)[C@@H](C)O)[C@@H](C)CC)[C@@H](C)O)[C@@H](C)CC)C(=O)N[C@@H](CCC(=O)O)C(=O)NCC(=O)NCC(=O)N1CCC[C@H]1C(=O)N[C@@H](CO)C(=O)N[C@@H](CO)C(=O)NCC(N)=O [Example 167] (H-Y[Aib]EGT[αMePhe(2-F)]TSDHSI[αMeL]LDEK([AEEA-AEEA-γGlu-C20 diacid])AQ[Aib]TFI[dE]YLIEGGPSSG-NH2)	1.2	0.617
CC[C@H](C)[C@H](NC(=O)[C@H](CC(C)C)NC(=O)[C@H](Cc1ccc(O)cc1)NC(=O)[C@@H](CCC(=O)O)NC(=O)[C@@H](NC(=O)[C@H](Cc1ccccc1)NC(=O)[C@@H](NC(=O)C(C)(C)NC(=O)[C@H](CCC(N)=O)NC(=O)[C@H](C)NC(=O)[C@H](CCCCNC(=O)COCCOCCNC(=O)COCCOCCNC(=O)CC[C@H](NC(=O)CCCCCCCCCCCCCCCCCCC(=O)O)C(=O)O)NC(=O)[C@H](CCC(=O)O)NC(=O)[C@H](CC(=O)O)NC(=O)[C@H](CC(C)C)NC(=O)[C@](C)(CC(C)C)NC(=O)[C@@H](NC(=O)[C@H](CO)NC(=O)[C@H](Cc1c[nH]cn1)NC(=O)[C@H](CC(=O)O)NC(=O)[C@H](CO)NC(=O)[C@@H](NC(=O)[C@](C)(Cc1ccccc1F)NC(=O)[C@@H](NC(=O)CNC(=O)[C@H](CCC(=O)O)NC(=O)C(C)(C)NC(=O)[C@@H](N)Cc1ccc(O)cc1)[C@@H](C)O)[C@@H](C)O)[C@@H](C)CC)[C@@H](C)O)[C@@H](C)CC)C(=O)N[C@@H](CCC(=O)O)C(=O)NCC(=O)NCC(=O)N1CCC[C@H]1C(=O)N[C@@H](CO)C(=O)N[C@@H](CO)C(=O)NCC(=O)N[C@@H](C)C(=O)N1CCC[C@H]1C(=O)N1CCC[C@H]1C(=O)N1CCC[C@H]1C(=O)N[C@@H](CO)C(N)=O [Example 168] (H-Y[Aib]EGT[αMePhe(2-F)]TSDHSI[αMeL]LDEK([AEEA-AEEA-γGlu-C20 diacid])AQ[Aib]TFI[dE]YLIEGGPSSGAPPPS-NH2)	1.8	0.572

From US12252524B2, “GIP/GLP1 co-agonist compounds” (Eli Lilly and Company, priority 2018, dated 2025)
